Our source for the EC50, inhibition and IC50 values is patent US8933015B2, “Macrocyclic inhibitors of flaviviridae viruses” (Gilead Sciences, Inc., priority 2010, dated 2015).

Assay [1] deals with human hepatoma Huh-7 cell line harboring a HCV replicon. In words: HCV replicon assay (inhibition of viral replication, luciferase). In kind it is cell-based. As to conditions: Hepatitis C virus; for EC50: Huh-7, 72 h; for inhibition at 1 µM: Huh-7, read-out: % inhibition at 1 μM. How it is done:
The anti-HCV activity of the compounds of this invention was tested in a human hepatoma Huh-7 cell line harboring a HCV replicon. The assay comprised the following steps:
Step 1: Compound Preparation and Serial Dilution
Serial dilution was performed in 100% DMSO in a 384-well plate. A solution containing a compound at 225-fold concentration of the starting final serial dilution concentration was prepared in 100% DMSO and 15 uL added to the pre-specified wells in column 3 or 13 of a polypropylene 384-well plate. The rest of the 384-well plate was filled with 10 uL 100% DMSO except for columns 23 and 24, where 10 uL of 500 uM a HCV protease inhibitor (ITMN-191) in 100% DMSO was added. […] The plate was then placed on a Biomek FX Workstation to start the serial dilution. The serial dilution was performed for ten cycles of 3-fold dilution from column 3 to 12 or from column 13 to 22.
Step 2: Cell Culture Plate Preparation and Compound Addition
To each well of a black polypropylene 384-well plate, 90 μL of cell media containing 1600 suspended Huh-7 HCV replicon cells was added with a Biotek uFlow Workstation. A volume of 0.4 μL of the compound solution was transferred from the serial dilution plate to the cell culture plate on a Biomek FX Workstation. The DMSO concentration in the final assay condition was 0.44%. The plates were incubated for 3 days at 37° C. with 5% CO2 and 85% humidity.
Step 3: Detection of Cytotoxicity and Inhibition of Viral Replication
b) Assessment of inhibition of viral replication: The calcein-PBS solution in the 384-well cell culture plate was aspirated with a Biotek EL405 plate-washer. A volume of 20 μL of Dual-Glo luciferase buffer (Promega, Dual-Glo Luciferase Assay Reagent, cat. #E298B) was added to each well of the plate with a Biotek uFlow Workstation. The plate was incubated for 10 minutes at room temperature. A volume of 20 μL of a solution containing 1:100 mixture of Dual-Glo Stop & Glo substrate (Promega, Dual-Glo Luciferase Assay Reagent, cat. #E313B) and Dual-Glo Stop & Glo buffer (Promega, Dual-Glo Luciferase Assay Reagent, cat. #E314B) was then added to each well of the plate with a Biotek uFlow Workstation. The plate was incubated at room temperature for 10 minutes before the luminescence signal was measured with a Perkin Elmer Envision Plate Reader.
The percent cytotoxicity was determined by calcein AM conversion to fluorescent product. The average fluorescent signal from the DMSO control wells were defined as 100% nontoxic. The individual fluorescent signal from testing compound treated well was divided by the average signal from DMSO control wells and then multiplied by 100% to get the percent viability. The percent anti-HCV replication activity was determined by the luminescence signal from the testing well compared to DMSO controls wells. The background signal was determined by the average luminescence signal from the HCV protease inhibitor treated wells and was subtracted from the signal from the testing wells as well as the DMSO control wells.
Where b is Hill's coefficient. See, for reference, Hill, A. V., The Possible Effects of the Aggregation of the Molecules of Hemoglobin on its Dissociation Curves, J. Physiol. 40: iv-vii. (1910).
% inhibition values at a specific concentration, for example 2 μM, can also be derived from the formula above.
The EC50's are presented as a % inhibition.

In another assay the target is cyclophilin A (Homo sapiens, UniProt P62937). Kind of assay: Cyclophilin A TR-FRET competitive binding assay. As to conditions: inhibition of cyclophilin binding; 5 nM CypA, 150 nM CsA-Cy5. How it is done:
Cyclophilin A TR-FRET Competitive Binding Assay
Inhibitor potency was measured using a competitive binding assay with a time-resolved fluorescence resonance energy transfer (TR-FRET) readout. […] The total volume of the assay solution was 100 μL. […] An IC50 value was calculated using a four-parameter logistic fit.

Chain of cyclophilin A (P62937 whole entry, species assumed): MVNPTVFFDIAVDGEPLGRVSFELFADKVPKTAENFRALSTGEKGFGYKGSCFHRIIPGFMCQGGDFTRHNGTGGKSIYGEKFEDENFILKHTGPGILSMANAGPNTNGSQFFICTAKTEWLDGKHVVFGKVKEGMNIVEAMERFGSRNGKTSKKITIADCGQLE

On to `CO[C@@H]1[C@@H](C)[C@@H](OC)/C=C/C=C/CCOC(=O)[C@@H]2CCCN(N2)C(=O)[C@H](Cc2cccc(O)c2)NC(=O)[C@H](C(C)C)NC(=O)[C@@H]1C` [Compound 3, (13E,15E)-(3S,6S,9R,10R,11S,12S,21S)-3-(3-Hydroxy-benzyl)-6-isopropyl-10,12-dimethoxy-9,11-dimethyl-19-oxa-1,4,7,25-tetraaza-bicyclo[19.3.1]pentacosa-13,15-diene-2,5,8,20-tetraone], for which, in assay [1], the EC50 is below 1 µM and the inhibition at 1 µM was determined as 59%.

Turning to `CO[C@@H]1[C@@H](C)[C@@H](OC)/C=C/C=C/CCNC(=O)[C@@H]2CCCN(N2)C(=O)[C@H](Cc2cccc(O)c2)NC(=O)[C@H](C(C)C)NC(=O)[C@@H]1C` [Compound 4, (13E,15E)-(3S,6S,9R,10R,11S,12S,21S)-3-(3-Hydroxy-benzyl)-6-isopropyl-10,12-dimethoxy-9,11-dimethyl-1,4,7,19,25-pentaaza-bicyclo[19.3.1]pentacosa-13,15-diene-2,5,8,20-tetraone], in assay [1], the concentration for a half-maximal effect (EC50) fell in the range of 1.1 to 10 µM and the inhibition at 1 µM stood at 10%. This compound also had an IC50 on cyclophilin A below 0.1 µM.

For `CO[C@@H]1[C@@H](C)[C@@H](OC)/C=C/c2cccc(c2)COC(=O)[C@@H]2CCCN(N2)C(=O)[C@H](Cc2cccc(O)c2)NC(=O)[C@H](C(C)C)NC(=O)[C@@H]1C` [Compound 5, (E)-(5S,11S,14S,17R,18R,19S,20S)-11-(3-Hydroxy-benzyl)-14-isopropyl-18,20-dimethoxy-17,19-dimethyl-3-oxa-9,12,15,28-tetraaza-tricyclo[21.3.1.1*5,9*]octacosa-1(27),21,23,25-tetraene-4,10,13,16-tetraone], in assay [1], the EC50 was below 1 µM and the inhibition at 1 µM came out at 67%. Also, at cyclophilin A, the IC50 is below 0.1 µM.

For the compound `CC(C)[C@@H]1NC(=O)[C@H](C)[C@H](O)c2ccc(cc2)/C=C/CCOC(=O)[C@@H]2CCCN(N2)C(=O)[C@H](Cc2cccc(O)c2)NC1=O` [Compound 8, (E)-(8S,14S,17S,20R,21S)-21-Hydroxy-14-(3-hydroxy-benzyl)-17-isopropyl-20-methyl-6-oxa-12,15,18,27-tetraaza-tricyclo[20.2.2.1*8,12*]heptacosa-1(25),2,22(26),23-tetraene-7,13,16,19-tetraone], the inhibition at 1 µM in assay [1] was determined as 13%. The compound further gave an IC50 at cyclophilin A of 0.101 to 1 µM.

In the case of `CO[C@@H]1CC/C=C/c2cccc(c2)COC(=O)[C@@H]2CCCN(N2)C(=O)[C@H](Cc2cccc(O)c2)NC(=O)[C@H](C(C)C)NC(=O)[C@@H]1C` [Compound 10, (E)-(5S,11S,14S,17R,18R)-11-(3-Hydroxy-benzyl)-14-isopropyl-18-methoxy-17-methyl-3-oxa-9,12,15,28-tetraaza-tricyclo[21.3.1.1*5,9*]octacosa-1(27),21,23,25-tetraene-4,10,13,16-tetraone], the inhibition at 1 µM in assay [1] came to 59%.

`CO[C@@H]1CC/C=C/C=C/CCOC(=O)[C@@H]2CCCN(N2)C(=O)[C@H](Cc2cccc(O)c2)NC(=O)[C@H](C(C)C)NC(=O)[C@@H]1C` [Compound 11, (13E,15E)-(3S,6S,9R,10R,21S)-3-(3-Hydroxy-benzyl)-6-isopropyl-10-methoxy-9-methyl-19-oxa-1,4,7,25-tetraaza-bicyclo[19.3.1]pentacosa-13,15-diene-2,5,8,20-tetraone]: in assay [1], the EC50 was below 1 µM and the inhibition at 1 µM turned out to be 67%.

Regarding `CO[C@@H]1CC/C=C/c2cccc(c2)[C@@H](C)OC(=O)[C@@H]2CCCN(N2)C(=O)[C@H](Cc2cccc(O)c2)NC(=O)[C@H](C(C)C)NC(=O)[C@@H]1C` [Compound 13, (E)-(2R,5S,11S,14S,17R,18R)-11-(3-Hydroxy-benzyl)-14-isopropyl-18-methoxy-2,17-dimethyl-3-oxa-9,12,15,28-tetraaza-tricyclo[21.3.1.1*5,9*]octacosa-1(26),21,23(27),24-tetraene-4,10,13,16-tetraone], in assay [1], the EC50 was below 1 µM and the inhibition at 1 µM is 93%.
